Laboratory results as given in article PMC11697113, “The Hsc70 system maintains the synaptic SNARE protein SNAP-25 in an assembly-competent state and delays its aggregation [drawing 1]” (The Journal of Biological Chemistry, 2024).

What was measured:
V438F Hsc70 = assay: ATPase activity of V438F Hsc70; format: biochemical, human; conditions: V438F Hsc70 2 μM, peptide 200 μM; binding site blocked; three independent experiments (Fig. S3)
Text: Hsp70s consist of an nucleotide-binding domain (NBD) and a substrate-binding domain (SBD). Hsc70 works using an allosteric mechanism whereby substrate binding at the SBD stimulates the ATP hydrolysis rate at the nucleotide-binding domain. The basal ATPase rate of Hsp70 is low, usually about 0.05 ± 0.009 mol Pi/mol protein, and increases when it is stimulated by binding of a peptide to the canonical site in the SBD. We measured the ability of SNAP-25 peptides SNNP and SNCP to stimulate the ATPase rate of Hsc70 (Fig. 5A). SNNP and SNCP binding cause a 1.5-fold increase of the Hsc70 ATPase rate over basal (observed rates upon addition of SNNP and SNCP were 0.089 ± 0.008 and 0.080 ± 0.005, respectively). In order to confirm that peptides are indeed binding at the canonical binding site of Hsc70, we used the V438F mutant that blocks the binding site ([37]). […] The addition of CSPαJ stimulates the ATPase activity of Hsc70 ∼4-fold with and without peptides.
We performed ATPase assays to observe the activity of Hsc70 in the presence of SNAP25 peptides. Hsc70 (2 μM) and peptide (200 μM) were incubated in HMK buffer with 1 mM DTT for 15 min followed by addition of 1 mM ATP and incubation at 37 °C for 1 h. […] Absorbance readings were taken at 620 nm using a BioTek plate reader. […]

Hsc70 = molecular target: T1, Hsc70 (Homo sapiens, UniProt P11142); assay: Native PAGE / Western blot of SNAP-25-Hsc70 complex; format: binding; conditions: SNAP-25 10 μM, Hsc70 2 μM, anti-Hsc70 and anti-His Western blot
T1 construct: 6X His-tag (TEV-cleavable) (cleaved yes); made in house; host or cells: E. coli Rosetta (DE3)
T1 sequence (P11142 whole entry): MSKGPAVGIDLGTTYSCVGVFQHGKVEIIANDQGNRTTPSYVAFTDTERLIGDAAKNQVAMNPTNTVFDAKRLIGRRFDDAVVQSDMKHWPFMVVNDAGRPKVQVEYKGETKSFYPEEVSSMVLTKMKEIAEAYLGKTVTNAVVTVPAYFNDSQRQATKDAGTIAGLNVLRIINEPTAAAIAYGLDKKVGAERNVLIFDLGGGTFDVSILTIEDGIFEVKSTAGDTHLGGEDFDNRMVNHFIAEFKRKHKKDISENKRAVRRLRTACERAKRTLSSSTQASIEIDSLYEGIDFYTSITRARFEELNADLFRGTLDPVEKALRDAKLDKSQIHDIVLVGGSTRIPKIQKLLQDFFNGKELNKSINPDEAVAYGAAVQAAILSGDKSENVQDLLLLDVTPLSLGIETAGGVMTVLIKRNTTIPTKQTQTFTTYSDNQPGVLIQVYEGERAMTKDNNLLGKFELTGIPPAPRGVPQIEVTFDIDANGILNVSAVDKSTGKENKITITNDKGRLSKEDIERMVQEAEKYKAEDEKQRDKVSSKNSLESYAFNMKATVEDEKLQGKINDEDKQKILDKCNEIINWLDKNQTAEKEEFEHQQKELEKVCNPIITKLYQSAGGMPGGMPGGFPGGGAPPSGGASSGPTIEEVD
Procedure: Figure 3 Hsc70 forms complexes with SNAP-25.A, native PAGE of SNAP-25 (10 μM) in the presence and absence of Hsc70 (2 μM). The difference in signal intensity of His-SNAP25 probed with antibody is likely due to altered epitope exposure upon formation of the SNAP-25-Hsc70 complex. B, binding of SNAP-25 (black), SNAP-25 SNN (SNNFR, orange), and SNC (SNCFR, green)) fragments to Hsc70 by competition followed by fluorescence anisotropy. Increasing concentrations of the competitors were added to a complex of Hsc70 (5 μM) and FITC-p5 peptide (50 nM). Error bars represent SDs from three independent experiments.
Precast native PAGE gels (Bio-Rad, 4–20%) were used to separate proteins based on their conformation and charge. SNAP-25 (10 μM), Hsc70 (2 μM) and a mix of both samples were mixed with a nondenaturing loading buffer and directly loaded onto the gel without heating. Electrophoresis was carried out in Tris-glycine running buffer at 180V for approximately 1 h until the dye front reached the bottom of the gel. Gels were stained with Coomassie Brilliant Blue R-250 (Sigma-Aldrich) and destained in a methanol-acetic acid solution until clear bands were visible.

SNAP-25 [1] = conditions: also Fig. S1; cited from earlier work
Text: SNAP-25 has four native cysteines that are palmitoylated upon interaction with the membrane. […] For all of our studies, the SNAP-25 CS mutant was used unless otherwise mentioned. We assessed formation of the Hsc70-SNAP-25 complex by CD and found no significant conformational ...

SNAP-25 [2] = assay: Far-UV CD; format: physicochemical; conditions: far-UV CD 200–250 nm, 22 °C (Fig. S1)
Procedure: SNAP-25 has four native cysteines that are palmitoylated upon interaction with the membrane. […] For all of our studies, the SNAP-25 CS mutant was used unless otherwise mentioned.
The far-UV CD spectra (200–250 nm) were recorded on a Jasco J-1500 Circular Dichroism Spectrophotometer at 22 °C. The SNAP-25 WT, SNAP-25, and mixture of SNAP-25 and Hsc70 were taken in a 1 mm path length quartz cuvette. Figures show the average of ten scans where the buffer baselines were subtracted. Data were plotted using software using the Origin (Pro) program (OriginLab Corp).

EREQMAISGGFIRR [SNCP, peptide … from the LOOP-SNC domain of SNAP-25]
enhancement of V438F Hsc70 ATPase activity (V438F Hsc70): did not enhance its ATPase activity

RRMLQLVEESK [SNNP, peptide … from the SNN domain of SNAP-25]
enhancement of V438F Hsc70 ATPase activity (V438F Hsc70): did not enhance its ATPase activity

synaptosomal-associated 25 kDa protein [SNAP-25]
complex formation of His-SNAP-25 with Hsc70 (Hsc70): a complex can be seen | secondary structure by CD (SNAP-25 [1]): disordered with nascent helical tendencies | conformational change upon Hsc70-SNAP-25 interaction (SNAP-25 [2]): no significant conformational change
